# Test results taken from patent publication US11324706B2, “Composition for inhibiting growth of breast cancer stem cells containing phenylacetaldehyde” (JEJU NATIONAL UNIVERSITY INDUSTRY-ACADEMIC COOPERATION …, priority 2016, dated 2022).
# What was measured:
# [1] = tested on: MDA-MB-231 cells; test: Clonogenicity assay (colony formation); format: cell-based, human; conditions: MDA-MB-231, 7 days
# Experimental: The dissociated 1,000 MDA-MB-231 cells were seeded on a 6-well plate and treated with marked concentrations of PAA and DMSO for 7 days. A representative image of colonies was recorded. Shown data is represented as a mean±SD in three independent tests. * means P<0.05, as compared to DMSO-treated control group;
# MDA-MB-231 cells were seeded at a low density on a 6-well plate and treated with different concentrations of PAA in DMEM. After 24 hours, the medium was replaced with fresh medium and incubated for cell growth for 7 days. Grown colonies were counted.
# [2] = tested on: Caspase 3/7 activity in MDA-MB-231 cells; test: Caspase-3/7 analysis (Caspase-Glo 3/7 kit); format: cell-based, human; conditions: MDA-MB-231, 24 hours
# Experimental: (FIGS. 1D, E and F) show effects of PAA on apoptosis of breast cancer cells. MDA-MB-231 cells were treated with PAA for 24 hours, and apoptotic cells were analyzed by FACS using an Annexin V-PI staining kit. Caspase 3/7 activity in MDA-MB-231 cells was analyzed using a Caspase-Gloss 3/7 kit. By fluorescent staining, apoptotic cells were analyzed and nuclei thereof were stained with Hoechst 33258 in breast cancers (magnified, 200×) (FIG. 1);
# Cancer cells were treated with different concentrations of PAA for 24 hours. Caspase-3/7 activity was analyzed in accordance with the manufacturer's instructions regarding a Caspase-Glo 3/7 kit (Promega, Wis., USA). 100 μl of a Caspase-Glo 3/7 reagent was added to a 96-well for culturing cancer cells. The plate was covered with a plate sealer and cultured at room temperature for one hour, and Caspase-3/7 activity was measured using a plate-reading luminometer, GloMax® Explorer (Promega, Wis., USA).
# [3] = target: T1, Stat3 / biotin-labelled Stat probe (Homo sapiens, UniProt P40763); test: Electrophoretic mobility shift assay (EMSA) with Stat3 probe; format: cell-based; conditions: PAA-treated mammosphere nuclear extracts
# T1 construct: EMSA (electrophoretic mobility-shift assay) of PAA-treated MDA-MB-231 cell-derived mammosphere nuclear lysates; endogenous in cells; host or cells: MDA-MB-231 cell-derived mammospheres (nuclear lysate)
# Experimental: Nuclear lysates were cultured in biotin-labeled Stat3 probes and were isolated by 6% PAGE;
# Lane 1: probe alone; Lane 2: probe+nuclear extracts; Lane 3: probe+PAA-treated nuclear extracts; Lane 4: self-competition; Lane 5: nuclear extracts cultured together with mutant STAT3 probe. The PAA reduced DNA/STAT3 interactions in mammosphere nuclear lysates;
# In accordance with the manufacturer's instructions, EMSAs were detected using a chemiluminescent EMSA kit (Thermoscientific, IL, USA) commercially available from Lightshift. Biotin-top and bottom probe parts (5′-[…]-Biotin3′, SEQ NO. 11 and 5′-[…]-Biotin3′, SEQ NO. 12) of Stat3 probe were annealed and the double-stranded oligonucleotide was end-labelled with biotin.
# Biotin-labelled DNA probes were cultured together with PAA-treated nuclear proteins in a total volume of 20 μl of EMSA buffer containing 1 μg/μl poly[dI-dC]) for 20 minutes at room temperature. The reaction mixture was subjected to electrophoresis on 4% polyacrylamide nondenaturing gel at 4° C. in the presence of 0.5×TBE (45 mM Tris borate and 1 mM EDTA) and visualized using a chemiluminescence nucleic acid detection kit (Thermoscientific, IL, USA).
# In addition, bonding between PAA-treated nuclear extracts and Stat3 DNAs was analyzed using a biotin-labelled Stat-conjugated probe that bonds to STAT3 at a high affinity. […]
# [4] = tested on: MCF-7 cell-derived mammospheres; test: Mammosphere formation, MCF-7-derived; format: cell-based, human
# Experimental: FIGS. 4A, 4B and 4C show effects of PAA on formation of MCF-7 cell-derived mammospheres. Primary mammospheres were cultured together with PAA (0.2 and 0.5 mM) or DMSO;
# Human breast cancer cells, i.e., MCF-7 and MDA-MB-231, were commercially obtained from American Type Culture Collection (ATCC; Manassas, Va., USA). MCF-7 and MDA-MB-231 cells were cultured in Dulbecco's modified essential medium (DMEM; Hyclone, Logan, Utah, USA) containing 10% fetal bovine serum (FBS; Hyclone), 100 U/mL of penicillin, and 100 μg/mL of streptomycin (Hyclone). The MCF-7 and MDA-MB-231 cells were maintained at 37° C. in a 5% CO2-containing humidified incubator. The cells were plated at a density of 1×10^6 on a 10 cm petri dish. In order to establish primary mammospheres, single cell-suspended MCF-7 and MDA-MB-231 cells were seeded at a density (cells/well) of 3.5×10^4 to 4×10^4 and 0.5×10^4 to 1×10^4, respectively, on ultra-low attachment 6-well plates containing 2 ml complete MammoCult™ medium (StemCell Technologies, Vancouver, BC, Canada). The complete MammoCult™ medium was supplemented with 4 μg/mL of heparin, 0.48 μg/mL of hydrocortisone, 100 U/mL of penicillin and 100 μg/mL of streptomycin. The cells were cultured for 7 days in a 37° C. 5% CO2 incubator.
# At 7 days of culture, the cell culture plate was disposed on a scanner (Epson Perfection V700 PHOTO, Epson Korea, Co, Seoul, Korea) to obtain an 8 bit gray scale image of mammospheres. The image was obtained at a low resolution (300 dpi) using an NICE software program and downloaded from ftp://ftp.nist.gov/pub/physics/mLclarke/NICE. For counting, preferred numbers of rows and columns (for example, 2×3 of 6-well plate) were selected to form regions of interest (ROIs), and an oval setting of the NICE program was selected and then respective ROIs were defined by moving the shapes of provided ROIs and controlling the sizes thereof. The background signal of the image was negated using a critical algorithm and the selected image was automatically counted. Regarding the mammosphere formation analysis, formation efficiency of mammospheres (MFE, %) was determined in accordance with the number of mammospheres per well/the total number of cells plated per well×100.
# T1 sequence (P40763 2-770 limits assumed): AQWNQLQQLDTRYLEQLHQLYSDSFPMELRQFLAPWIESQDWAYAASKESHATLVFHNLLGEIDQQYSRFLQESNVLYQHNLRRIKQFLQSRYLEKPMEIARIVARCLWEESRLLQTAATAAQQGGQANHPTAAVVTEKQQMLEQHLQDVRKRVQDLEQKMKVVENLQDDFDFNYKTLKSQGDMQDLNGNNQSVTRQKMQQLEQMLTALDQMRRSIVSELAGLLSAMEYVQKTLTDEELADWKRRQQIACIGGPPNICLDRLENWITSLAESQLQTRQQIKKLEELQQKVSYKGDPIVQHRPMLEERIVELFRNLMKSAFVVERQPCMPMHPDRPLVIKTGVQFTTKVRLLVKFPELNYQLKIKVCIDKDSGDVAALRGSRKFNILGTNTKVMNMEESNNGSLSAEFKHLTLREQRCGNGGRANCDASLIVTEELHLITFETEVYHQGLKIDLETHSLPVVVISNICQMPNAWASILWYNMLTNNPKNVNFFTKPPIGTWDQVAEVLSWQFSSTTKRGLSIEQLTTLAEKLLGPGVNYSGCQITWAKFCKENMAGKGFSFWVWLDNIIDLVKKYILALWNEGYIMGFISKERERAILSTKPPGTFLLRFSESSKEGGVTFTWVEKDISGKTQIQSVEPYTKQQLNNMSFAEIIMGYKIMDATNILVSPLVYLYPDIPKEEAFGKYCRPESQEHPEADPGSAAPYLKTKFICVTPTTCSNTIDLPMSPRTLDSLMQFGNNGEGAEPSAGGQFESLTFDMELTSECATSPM
structure (smiles),measurement,setting,value
"O=CCc1ccccc1 [PAA, phenylacetaldehyde]",formation of colonies,[1],concentration-dependently inhibited
same,activity of caspase 3/7,[2],concentration-dependently induced
same,bonding between biotin-labelled Stat probe and Stat3,[3],inhibited
same,size of mammospheres,"[4]; MCF-7-derived, 7 days",reduced
same,formation of primary mammospheres derived from MCF-7 cells,[4]; volatile materials exposed to MCF-7 (FIG. 5B),potently inhibited
